{"source": "patent US8404803B2", "about": "“Cancer-associated antigen analogue peptides and uses thereof” (Chugai Seiyaku Kabushiki Kaisha, priority 2005, dated 2013)", "type_in_all_cases": "cell-based, human", "key": {"[1]": {"system": "CD4-positive/TNFα-positive T cells", "assay": "Flow cytometry detection of CD4 and TNFα in OVCA11-stimulated T cells", "conditions": "typical example, FIG. 12; after OVCA11 stimulation (0.44% before)", "from_the_text": "(§1) A number of mouse-derived anti-human specific monoclonal antibodies with different fluorescences (hereinafter referred to as ‘monoclonal antibodies’) were used to simultaneously analyze by double-staining the CD markers CD4 and CD8, which are on the T cell membranes, and the cytokines within the T cells. As the monoclonal antibodies, products labeled with either fluorescent substance phycoerythrin (hereinafter ‘PE’) or fluorescein isothiocyanate (hereinafter ‘FITC’) were used (Miltenyi Biotec, Glandbach, Germany). For detection, a flow cytometry apparatus FACScan (Becton Dickinson) was used to measure the frequency of cells to which the monoclonal antibodies had bound. Positive cells are automatically detected by the flow cytometry apparatus.\n(§2) Since positive cells cannot be identified after the cytokines have been secreted to the outside of the cells, detection was performed at a stage where the cytokines are inside the cells. […]\n(§3) T cells activated in an antigen-specific manner are known to produce tumor necrosis factor α (TNFα) when they injure target cells, such as tumor cells. Therefore, the OVCA11-stimulated T cells obtained in [Example 3] were analyzed by flow cytometry to determine whether they indeed produced TNFα, using a similar method to [Example 3] and combinations of CD4 and TNFα, and CD8 and TNFα."}, "[2]": {"system": "CD4-positive/IFNγ-producing T cells", "assay": "Flow cytometry detection of CD4-positive/IFNγ-positive T cells in peptide-stimulated mononuclear cell samples", "conditions": "for CD4+ IFNγ+ number of positive samples/tested samples: mononuclear cell samples cultured 48 hours with peptide and IL-2; for CD4+ IFNγ+ number of positive samples/tested samples / CD4+ IFNγ+ number of positive samples/tested samples × 100 (%): positive sample > mean of control + 2 × SD (OVCA10-MNC group, 1.378%)", "protocol": "(§4) All operations concerning cell culture were performed aseptically. First, human peripheral mononuclear cell fractions (comprising T cells, B cells, macrophages and such; hereinafter referred to as “mononuclear cell samples”) were prepared from the blood samples by density gradient centrifugation. Next, these mononuclear cells were suspended at 1×10^5 cell/ml in complete media having the following composition: • Complete Medium: RPMI1640 culture medium (Gibco Laboratories Inc., Grand Island, N.Y.) to which 10% fetal bovine serum (Cell Culture Laboratories, Cleveland, Ohio), 0.2 mM L-glutamine, 100 U/mL penicillin, 100 μg/mL streptomycin (Gibco Laboratories Inc.), and 0.2 ng/mL recombinant human IL-2 (Dainippon Pharmaceutical Co., Tokyo, Japan) have been mixed.\n(§5) Theses mononuclear cell samples were placed still in V-bottomed 96-well tissue culture plastic plates (Flow Laboratories Inc., Horsham, Pa.) in the presence and absence of peptides, and cultured for 48 hours at 37° C. in a CO2 culture apparatus (Sanyo Medica, Osaka, Japan).\nas §1\n(§6) Since positive cells cannot be identified after the cytokines have been secreted to the outside of the cells, detection was performed at a stage where the cytokines are inside the cells. Therefore, the Cytofix/Cytoperm Kit (Pharmingen, San Diego, Calif.) was used for the analysis, using methods recommended by the manufacturer and a positive control for detection recommended by the kit (Prussin C, Metcalfe D, Detection of intracytoplasmic cytokine using flow cytometry and directly conjugated anti-cytokine antibodies, J Immunol Meth. 188: 117-128, 1995). Specifically, brefeldin A (Pharmingen, San Diego, Calif.) was added at 0.7 μl/1 ml/well to stop protein production in the Golgi apparatus, and the peptide-stimulated mononuclear cell samples were treated at 37° C. for two hours. Next, the culture plates were placed on ice and the reaction was stopped by adding physiological saline at 4° C. The mononuclear cell samples were transferred into 15 ml tubes as though by washing with the physiological saline at 4° C., and were then centrifuged at 1600 rpm for ten minutes to remove the supernatant.\n(§7) First, to dye CD4s on the cell surface, 10 μl of FITC-labeled mouse anti-human CD4 was added, with CD8 monoclonal antibody as a control, and this was reacted at 4° C. for 30 minutes. The cells were then separated with 0.5% bovine serum albumin/physiological saline at 4° C., then 0.5% bovine serum albumin/physiological saline at 4° C. was added thereto, and this was centrifuged at 1600 rpm for ten minutes at 4° C. to remove the supernatant.\n(§8) Next, the mononuclear cell samples were fixed and their cell membranes were permeabilized. The cells were suspended in 250 μl of Cytofix/Cytoperm (Pharmingen) solution and reacted at 4° C. for 20 minutes. 10 μl of the aforementioned fluorescently labeled anti-IFNγ monoclonal antibody or anti-IL-4 monoclonal antibody was added to these mononuclear cell samples and reacted at 4° C. for 30 minutes. Then, the cells were separated by adding 0.5% bovine serum albumin/physiological saline at 4° C., and 0.5% BSA/PBS at 4° C. was further added thereto. After centrifugation at 1600 rpm for ten minutes at 4° C., the supernatant was removed. […]"}, "[3]": {"system": "CD4-positive/IL-4-producing T cells", "assay": "Flow cytometry detection of CD4-positive/IL-4-positive T cells in peptide-stimulated mononuclear cell samples", "conditions": "for CD4+ IL-4+ number of positive samples/tested samples: mononuclear cell samples cultured 48 hours with peptide and IL-2; for CD4+ IL-4+ number of positive samples/tested samples / CD4+ IL-4+ number of positive samples/tested samples × 100 (%): positive sample > mean of control + 2 × SD (OVCA10-MNC group, 1.148%)", "protocol": "as §4, §5, §1, §6, §7, §8"}, "[4]": {"system": "CD8-positive/TNFα-positive T cells", "assay": "Flow cytometry detection of CD8 and TNFα in OVCA11-stimulated T cells", "conditions": "typical example, FIG. 12; after OVCA11 stimulation (0.28% before)", "from_the_text": "as §1, §2, §3"}, "CD4-positive T cells": {"system": "CD4-positive T cells", "assay": "Analysis of the CD4-positive T cell epitope (T cells positive for IL-4 or IFNγ)", "conditions": "peptides with ten amino acid residues reproducing the MUC16 primary sequence", "protocol": "The results were recorded as: number of double staining-positive cells/total number of counted mononuclear cells ×100=positive cell frequency (%). Furthermore, peptide antigen-specific T cell reactions were determined to be positive when the individual frequencies of positive cells in the mononuclear cell samples were the same as or greater than the mean plus two standard deviations (mean+2SD) of the negative control group, where the negative control was a mononuclear cell sample group that had been stimulated with analogue peptide (OVCA10 stimulation). In addition, each of the peptide-stimulated groups were compared by using t-tests to measure the significant difference.\nNext, to determine the T cell epitope (based not on the analogues but on the original sequence), the present inventors went back to the original amino acid sequence of the 11-times repeat sequences of MUC16 from which the 30 amino acid residue sequence: […] (SEQ ID NO: 45) common to OVCA11 and OVCA12 was derived. Furthermore, the sequence was divided into lots of ten amino acid residues to prepare OVCA101 (SEQ ID NO: 4), 102 (SEQ ID NO: 5), 103 (SEQ ID NO: 6), 104 (SEQ ID NO: 7), 105 (SEQ ID NO: 8), 106 (SEQ ID NO: 9), 107 (SEQ ID NO: 2), 108 (SEQ ID NO: 3), 109, 110, 111, 112, 113, 114, 115 (SEQ ID NO: 10) (FIG. 5), and T cells positive for IL-4 or IFNγ were detected using a method similar to the above."}}, "data": [{"sequence": "GHTAPGPLLVPFTLNFTITN (listed as Homo sapiens) [OVCA11]", "values": [{"measurement": "frequency of CD4-positive/TNFα-positive T cells", "setting": "[1]", "result": 5.76, "unit": "%"}, {"measurement": "frequency of CD4-positive/IFNγ-producing T cells compared to groups to which OVCA10 was added", "setting": "[2]; FIG. 11, peptide 15 μM, statistically significant difference", "result": "higher"}, {"measurement": "frequency of CD4-positive/INFγ-positive cells, mean±standard deviation", "setting": "[2]; all of the analyzed mononuclear cell samples (FIG. 11), peptide 15 μM", "result": "3.037±2.234", "unit": "%"}, {"measurement": "average number of IFNγ-positive cells", "setting": "[2]; healthy group", "result": 3.48, "unit": "%"}, {"measurement": "CD4+ IFNγ+ number of positive samples/tested samples", "setting": "[2]", "result": "26/33"}, {"measurement": "CD4+ IFNγ+ number of positive samples/tested samples", "setting": "[2]; listed as OVCA 11", "result": "26 of the 33"}, {"measurement": "average number of IFNγ-positive cells", "setting": "[2]; patient group", "result": 2.85, "unit": "%"}, {"measurement": "CD4+ IFNγ+ number of positive samples/tested samples × 100 (%)", "setting": "[2]", "result": 78.8, "unit": "%"}, {"measurement": "CD4+ IFNγ+ number of positive samples/tested samples × 100 (%)", "setting": "[2]; listed as OVCA 11", "result": 78.8, "unit": "%"}, {"measurement": "frequency of CD4-positive/IFNγ-positive T cells", "setting": "[2]; typical example of flow cytometry, FIGS. 9 and 10, IL-2 and analogue peptide added", "result": 3.12, "unit": "%"}, {"measurement": "frequency of CD4-positive/IL-4-producing T cells compared to groups to which OVCA10 was added", "setting": "[3]; FIG. 8, peptide 15 μM, statistically significant difference", "result": "higher"}, {"measurement": "frequency of CD4-positive/IL-4-positive cells, mean±standard deviation", "setting": "[3]; all the analyzed mononuclear cell samples (FIG. 8), peptide 15 μM", "result": "4.314±2.805", "unit": "%"}, {"measurement": "average number of IL-4-positive cells", "setting": "[3]; healthy group", "result": 4.89, "unit": "%"}, {"measurement": "CD4+ IL-4+ number of positive samples/tested samples", "setting": "[3]", "result": "27/32"}, {"measurement": "CD4+ IL-4+ number of positive samples/tested samples", "setting": "[3]; listed as OVCA 11", "result": "27 of the 32"}, {"measurement": "average number of IL-4-positive cells", "setting": "[3]; patient group", "result": 4.12, "unit": "%"}, {"measurement": "CD4+ IL-4+ number of positive samples/tested samples × 100 (%)", "setting": "[3]", "result": 84.4, "unit": "%"}, {"measurement": "CD4+ IL-4+ number of positive samples/tested samples × 100 (%)", "setting": "[3]; listed as OVCA 11", "result": 84.4, "unit": "%"}, {"measurement": "frequency of CD4-positive/IL-4-positive T cells", "setting": "[3]; typical example of flow cytometry, FIGS. 6 and 7, IL-2 and analogue peptide added", "result": 7.06, "unit": "%"}, {"measurement": "frequency of CD8-positive/TNFα-positive T cells", "setting": "[4]", "result": 3.98, "unit": "%"}]}, {"sequence": "PFTLNFTITN (listed as Homo sapiens) [OVCA107]", "values": [{"measurement": "recognized by CD4-positive T cells", "setting": "CD4-positive T cells", "result": "recognized by CD4-positive T cells"}, {"measurement": "frequency of CD4-positive/IFNγ-producing T cells at the time of epitope determination", "setting": "[2]; FIG. 16, peptide 15 μM", "result": "High frequency cases could be detected"}, {"measurement": "CD4-positive/IFNγ expression-positive frequencies, mean ± standard deviation", "setting": "[2]; epitope determination, patient's mononuclear cell samples (FIG. 16), peptide 15 μM", "result": "7.626±12.448", "unit": "%"}, {"measurement": "CD4+ IFNγ+ number of positive samples/tested samples", "setting": "[2]", "result": "3/8"}, {"measurement": "CD4+ IFNγ+ number of positive samples/tested samples × 100 (%)", "setting": "[2]", "result": 37.5, "unit": "%"}, {"measurement": "frequency of CD4-positive/IFNγ-positive T cells at the time of epitope determination", "setting": "[2]; typical example of flow cytometry, FIG. 15, IL-2 and peptide added", "result": 2.10, "unit": "%"}, {"measurement": "frequency of CD4-positive/IL-4-producing T cells at the time of epitope determination", "setting": "[3]; FIG. 14, peptide 15 μM", "result": "High frequency cases could be detected"}, {"measurement": "CD4-positive/IL-4-positive frequencies, mean ± standard deviation", "setting": "[3]; epitope determination, patient's mononuclear cell samples (FIG. 14), peptide 15 μM", "result": "8.036±12.870", "unit": "%"}, {"measurement": "CD4+ IL-4+ number of positive samples/tested samples", "setting": "[3]", "result": "5/9"}, {"measurement": "CD4+ IL-4+ number of positive samples/tested samples × 100 (%)", "setting": "[3]", "result": 55.6, "unit": "%"}, {"measurement": "frequency of CD4-positive/IL-4-positive T cells at the time of epitope determination", "setting": "[3]; typical example of flow cytometry, FIG. 13, IL-2 and peptide added", "result": 6.32, "unit": "%"}]}]}
